These results are taken from PMC5784979, “Direct comparison of the four aldehyde oxidase enzymes present in mouse gives insight into their substrate specificities” (PLoS ONE, 2018).

One assay addresses T1, mAOX3 (Mus musculus, UniProt G3X982).
T1 construct: gene Aox3; recombinant from E. coli TP1000 (plasmid pMMA1), Ni-NTA and Superdex 200 purified, chemically sulfurated, dimer (300 kDa)
T1 sequence (G3X982 1-1335): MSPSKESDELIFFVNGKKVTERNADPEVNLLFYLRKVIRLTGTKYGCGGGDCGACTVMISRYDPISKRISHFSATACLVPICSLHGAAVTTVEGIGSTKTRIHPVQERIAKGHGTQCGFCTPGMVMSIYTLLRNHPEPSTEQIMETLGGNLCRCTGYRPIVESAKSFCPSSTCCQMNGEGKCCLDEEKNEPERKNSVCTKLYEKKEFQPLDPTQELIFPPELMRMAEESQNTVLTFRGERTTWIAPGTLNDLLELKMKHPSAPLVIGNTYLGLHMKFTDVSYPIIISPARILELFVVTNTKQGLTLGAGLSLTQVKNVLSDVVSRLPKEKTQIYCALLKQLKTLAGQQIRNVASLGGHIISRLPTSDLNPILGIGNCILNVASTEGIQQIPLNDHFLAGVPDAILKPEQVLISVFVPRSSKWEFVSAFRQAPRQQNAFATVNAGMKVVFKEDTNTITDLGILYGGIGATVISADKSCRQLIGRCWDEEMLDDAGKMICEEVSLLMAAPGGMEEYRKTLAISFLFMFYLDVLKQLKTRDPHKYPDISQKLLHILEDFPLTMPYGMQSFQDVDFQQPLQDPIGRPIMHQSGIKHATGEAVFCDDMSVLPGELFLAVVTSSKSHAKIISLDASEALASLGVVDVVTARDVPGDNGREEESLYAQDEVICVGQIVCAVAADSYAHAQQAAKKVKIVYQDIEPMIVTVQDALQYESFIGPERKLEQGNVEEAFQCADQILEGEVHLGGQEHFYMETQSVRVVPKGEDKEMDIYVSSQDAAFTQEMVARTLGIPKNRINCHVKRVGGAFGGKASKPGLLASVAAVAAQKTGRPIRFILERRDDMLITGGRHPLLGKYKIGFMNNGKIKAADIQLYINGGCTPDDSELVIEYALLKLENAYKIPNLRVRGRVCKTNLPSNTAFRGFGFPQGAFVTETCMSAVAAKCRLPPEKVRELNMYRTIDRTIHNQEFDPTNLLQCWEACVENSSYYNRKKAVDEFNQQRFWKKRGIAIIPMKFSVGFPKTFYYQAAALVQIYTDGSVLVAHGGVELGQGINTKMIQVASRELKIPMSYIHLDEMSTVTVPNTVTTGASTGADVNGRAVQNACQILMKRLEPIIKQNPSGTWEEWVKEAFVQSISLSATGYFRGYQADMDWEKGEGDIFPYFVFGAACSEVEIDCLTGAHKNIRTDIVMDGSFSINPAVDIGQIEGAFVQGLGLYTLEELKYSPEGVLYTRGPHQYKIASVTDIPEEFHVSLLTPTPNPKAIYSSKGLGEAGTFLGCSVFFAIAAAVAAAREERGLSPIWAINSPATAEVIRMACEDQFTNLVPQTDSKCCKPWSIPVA
Nature of the assay: DCPIP reduction at […] nm, steady-state kinetics. The settings on record: 100 μM DCPIP as electron acceptor, 50 mM Tris-HCl, 1 mM EDTA, pH 8.0, 37°C, corrected to 100% Mo saturation. The format is biochemical.

The target of the next assay is T2, mAOX2 (Mus musculus, UniProt Q5SGK3).
T2 construct: gene Aox2; recombinant from E. coli TP1000 (codon-optimized plasmid pMAOX2co), Ni-NTA and Superdex 200 purified, chemically sulfurated, dimer (300 kDa)
T2 sequence (Q5SGK3 1-1345): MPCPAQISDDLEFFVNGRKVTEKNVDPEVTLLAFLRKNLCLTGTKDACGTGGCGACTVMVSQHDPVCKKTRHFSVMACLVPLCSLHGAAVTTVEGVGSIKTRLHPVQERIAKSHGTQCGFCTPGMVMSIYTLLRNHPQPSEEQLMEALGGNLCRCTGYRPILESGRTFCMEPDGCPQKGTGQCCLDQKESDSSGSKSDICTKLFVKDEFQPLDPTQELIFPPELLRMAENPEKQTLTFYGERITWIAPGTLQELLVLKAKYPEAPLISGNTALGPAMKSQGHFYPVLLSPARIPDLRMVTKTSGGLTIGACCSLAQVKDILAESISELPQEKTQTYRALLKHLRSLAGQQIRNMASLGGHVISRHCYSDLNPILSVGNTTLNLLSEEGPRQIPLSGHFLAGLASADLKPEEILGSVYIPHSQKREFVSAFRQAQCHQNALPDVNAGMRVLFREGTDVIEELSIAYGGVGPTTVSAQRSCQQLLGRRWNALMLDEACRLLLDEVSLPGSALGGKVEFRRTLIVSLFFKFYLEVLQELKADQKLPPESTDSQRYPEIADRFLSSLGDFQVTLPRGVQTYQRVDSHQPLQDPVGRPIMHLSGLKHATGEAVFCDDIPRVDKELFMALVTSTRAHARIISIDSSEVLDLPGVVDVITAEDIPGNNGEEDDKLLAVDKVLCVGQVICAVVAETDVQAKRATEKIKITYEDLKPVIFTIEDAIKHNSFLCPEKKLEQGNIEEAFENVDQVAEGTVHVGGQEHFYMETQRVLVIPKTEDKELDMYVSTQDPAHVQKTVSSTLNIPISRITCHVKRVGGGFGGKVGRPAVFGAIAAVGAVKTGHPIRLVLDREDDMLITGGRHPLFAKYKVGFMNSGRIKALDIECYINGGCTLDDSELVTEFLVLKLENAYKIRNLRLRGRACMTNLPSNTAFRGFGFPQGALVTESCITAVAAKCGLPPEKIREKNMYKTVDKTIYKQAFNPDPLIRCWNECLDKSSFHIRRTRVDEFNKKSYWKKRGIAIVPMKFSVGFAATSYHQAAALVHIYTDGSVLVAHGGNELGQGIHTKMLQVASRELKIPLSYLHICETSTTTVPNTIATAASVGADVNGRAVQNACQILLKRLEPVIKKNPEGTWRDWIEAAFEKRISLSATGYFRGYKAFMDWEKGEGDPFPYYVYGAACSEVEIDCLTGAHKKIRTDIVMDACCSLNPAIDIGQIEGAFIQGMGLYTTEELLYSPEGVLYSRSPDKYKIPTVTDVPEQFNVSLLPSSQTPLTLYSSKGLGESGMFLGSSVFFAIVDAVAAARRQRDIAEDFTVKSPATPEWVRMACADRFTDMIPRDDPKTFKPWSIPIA
Nature of the assay: DCPIP reduction at […] nm, steady-state kinetics. The format is biochemical. The settings on record: 100 μM DCPIP as electron acceptor, 50 mM Tris-HCl, 1 mM EDTA, pH 8.0, 37°C, corrected to 100% Mo saturation.

Where [1] appears, read: limit given jointly for mAOX3, mAOX4 and mAOX2.

By Km is commonly meant the concentration of substrate that gives half-maximal velocity.

On to `CC=O` [acetaldehyde], for which the Km fell in the range of 4.4 to 4.6 mM at mAOX3 (range printed jointly for mAOX3, mAOX4 and mAOX2); 4.4 to 4.6 mM at mAOX2.
Consider `O=Cc1ccc(O)cc1` [4-hydroxybenzaldehyde], for which the Km at mAOX3 (setting [1]) and on mAOX2 (setting [1]) was below 0.002 mM throughout.
